Laboratory results: article PMC8159352, “Differentiating Aβ40 and Aβ42 in amyloid plaques with a small molecule fluorescence probe” (Chemical Science, 2020)

Assays:
[1] = biological target: T1, Aβ40 (amyloid beta 40) fibrils (Homo sapiens, UniProt P05067); assay: fluorescence titration of […] probe with fibrils; type: binding
T1 construct: gene APP; Aβ40 fibrils

[2] = biological target: T2, Aβ42 (amyloid beta 42) fibrils (Homo sapiens, UniProt P05067); assay: fluorescence titration of […] probe with fibrils; type: binding
T2 construct: gene APP; Aβ42 fibrils
T2 sequence (P05067 672-713 limits assumed): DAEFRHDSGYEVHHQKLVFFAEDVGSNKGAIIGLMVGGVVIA

T1 sequence (P05067 672-711 limits assumed): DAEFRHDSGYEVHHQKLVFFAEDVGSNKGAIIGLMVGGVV

With `CN(C)c1ccc(-c2ccc3cc(-c4nc5ccccc5s4)c(=N)oc3c2)cc1` [ICTAD-1] the Kd [1] was 6.27 µM and the Kd [2] was 3.78 µM.
